Experimental data published in ChEMBL document CHEMBL5042524, “Discovery of Novel Histone Deacetylase 6 (HDAC6) Inhibitors with Enhanced Antitumor Immunity of Anti-PD-L1 Immunotherapy in Melanoma” (J Med Chem, 2022).
Converted amounts (≈) assume the structure as drawn. Values belong to the compound of their own block, whether it stands above or below them. The source made the active and inactive calls. No cut-off for these calls is given here.

How the values were obtained:
B16-F10 [1] = assay: Induction of cell cycle arrest in mouse B16-F10 cells assessed as decrease in cells at G1 phase at 0.1 to 1 uM incubated for 48 hrs by RNase/PI staining based flow cytometry analysis; assay type: functional; details: dose 0.1-1 µM
[2] = Aqueous solubility of the compound incubated for 24 hrs by HPLC based shake-flask method; assay type: physicochemical; details: buffer
[3] = AUC(0 to t) in Sprague-Dawley rat at 10 mg/kg, po measured upto 48 hrs by LC-MS/MS analysis; assay type: ADME, organism-based; set-up: route oral, dose 10 mg/kg, time <=48; details: in vivo
[4] = MRT (0 to infinity) in Sprague-Dawley rat at 2 mg/kg, iv measured upto 48 hrs by LC-MS/MS analysis; assay type: ADME, organism-based; details: in vivo
[5] = MRT (0 to infinity) in Sprague-Dawley rat at 10 mg/kg, po measured upto 48 hrs by LC-MS/MS analysis; assay type: ADME, organism-based; details: in vivo
[6] = Half life in Sprague-Dawley rat at 2 mg/kg, iv measured upto 48 hrs by LC-MS/MS analysis; assay type: ADME, organism-based; details: in vivo
[7] = Half life in Sprague-Dawley rat at 10 mg/kg, po measured upto 48 hrs by LC-MS/MS analysis; assay type: ADME, organism-based; details: in vivo
[8] = Tmax in Sprague-Dawley rat at 2 mg/kg, iv measured upto 48 hrs by LC-MS/MS analysis; assay type: ADME, organism-based; details: in vivo
[9] = Tmax in Sprague-Dawley rat at 10 mg/kg, po measured upto 48 hrs by LC-MS/MS analysis; assay type: ADME, organism-based; details: in vivo
[10] = Clearance in Sprague-Dawley rat at 2 mg/kg, iv measured upto 48 hrs by LC-MS/MS analysis; assay type: ADME, organism-based; details: in vivo
[11] = Apparent volume of distribution in Sprague-Dawley rat at 2 mg/kg, iv measured upto 48 hrs by LC-MS/MS analysis; assay type: ADME, organism-based; details: in vivo
[12] = Cmax in Sprague-Dawley rat at 2 mg/kg, iv measured upto 48 hrs by LC-MS/MS analysis; assay type: ADME, organism-based; set-up: route intravenous, dose 2 mg/kg, time <=48; details: in vivo
B16-F10 [13] = assay: Antitumor activity against mouse B16-F10 cells allografted in C57BL/6 mouse assessed as tumor growth inhibition at 50 mg/kg, ip administered daily for 14 days by caliper method (Rvb= 63%); assay type: functional; details: 336 h, time 14 day, read-out: TGI
B16-F10 [14] = assay: Antitumor activity in mouse B16-F10 cells allografted in C57BL/6 mouse assessed as tumor growth inhibition at 50 mg/kg, ip administered for 14 days in presence of 2-(5-chloro-2-(3-cyanobenzyloxy)-4-((2-methylbiphenyl-3-yl)methoxy)benzylamino)-2-methylpropanoic acid by caliper method (Rvb= 63%); assay type: functional; details: 336 h, time 14 day, read-out: TGI
[15] = Toxicity in C57BL/6 mouse bearing B16-F10 tumor assessed as morphological changes in kidney at 50 mg/kg, ip administered for 14 days by H and E staining based microscopic analysis; assay type: organism-based; details: in vivo, 336 h, time 14 day
[16] = Toxicity in C57BL/6 mouse bearing B16-F10 tumor assessed as morphological changes in heart at 50 mg/kg, ip administered for 14 days by H and E staining based microscopic analysis; assay type: organism-based; details: in vivo, 336 h, time 14 day
[17] = Toxicity in C57BL/6 mouse bearing B16-F10 tumor assessed as morphological changes in liver at 50 mg/kg, ip administered for 14 days by H and E staining based microscopic analysis; assay type: organism-based; details: in vivo, 336 h, time 14 day
B16-F10 [18] = assay: (§1) Antitumour activity against mouse B16-F10 cells allografted in C57BL/6 mouse model assessed as increase in CD3 positive/CD4 positive cells in tumor at 50 mg/kg, ip administered for 14 days by flow cytometry analysis (Rvb= 8.73%); assay type: functional; details: time 14 day
B16-F10 [19] = assay: as §1, with “days in presence of 2-(5-chloro-2-(3-cyanobenzyloxy)-4-((2-methylbiphenyl-3-yl)methoxy)benzylamino)-2-methylpropanoic acid” for “days”; assay type: functional; details: time 14 day
B16-F10 [20] = assay: Antitumour activity against mouse B16-F10 cells allografted in C57BL/6 mouse model assessed as increase in CD3 positive/CD8 positive cells in tumor at 50 mg/kg, ip administered for 14 days by flow cytometry analysis (Rvb= 6.65%); assay type: functional; details: time 14 day
B16-F10 [21] = assay: Antitumour activity against mouse B16-F10 cells allografted in C57BL/6 mouse model assessed as increase in acetylated alpha tubulin expression level in tumor at 50 mg/kg, ip measured after 14 days by […] based microscopic analysis (Rvb =1.77%); assay type: functional; details: time 14 day
[22] = Toxicity in C57BL/6 mouse allografted with B16-F10 cells assessed as body weight loss at 50 mg/kg, ip administered daily for 14 days; assay type: organism-based; details: in vivo, 336 h, time 14 day
[23] = Toxicity in C57BL/6 mouse allografted with B16-F10 cells assessed as body weight loss at 50 mg/kg, ip administered daily for 14 days in combination with 2-(5-chloro-2-(3-cyanobenzyloxy)-4-((2-methylbiphenyl-3-yl)methoxy)benzylamino)-2-methylpropanoic acid; assay type: organism-based; details: in vivo, 336 h, time 14 day
Mus musculus [24] = assay: Myelosuppression in C57BL/6 mouse assessed as change in lymphocyte count at 50 mg/kg, IG administered once daily via gavage for 14 days; assay type: toxicity, organism-based; details: in vivo, po, 336 h, time 14 day
Mus musculus [25] = assay: Myelosuppression in C57BL/6 mouse assessed as change in granulocyte count at 50 mg/kg, IG administered once daily via gavage for 14 days; assay type: toxicity, organism-based; details: in vivo, po, 336 h, time 14 day
[26] = Potency index, ratio of MS-275 IC50 to test compound IC50 for antiproliferative activity against human YCC3/7 cells assessed as cell growth inhibition; assay type: functional

SMILES: COc1ccc(-c2ncc(C(=O)NCCCCCCC(=O)NO)[nH]2)c(OC)c1
- Activity (B16-F10 [1]): Active

- solubility thermodynamic at 24 h [2]: 41.3 µg/mL (≈ 101 µM)
- AUC(0-t) at 48 h [3]: 134 ng·h/mL
- MRT inf [4]: 1.6 h
- MRT inf [5]: 8.5 h
- half-life [6]: 6.2 h
- half-life [7]: 5.8 h
- Tmax [8]: 4.98 min
- Tmax [9]: 5.3 h
- clearance [10]: 105 mL/min/kg
- Vz/F [11]: 76.5 L/kg
- Cmax [12]: 875 ng/mL
SMILES: COc1ccc(-c2ncc(C(=O)NCCCCCCC(=O)NO)s2)c(OC)c1
- inhibition in vivo at 50 mg/kg (B16-F10 [13]): 48%
- inhibition in vivo at 50 mg/kg (B16-F10 [14]): 58%
- Activity [15]: Non-Toxic
- Activity [16]: Non-Toxic
- Activity [17]: Non-Toxic
- Activity (B16-F10 [18]): 8.72%
- Activity (B16-F10 [19]): 26.3%
- Activity (B16-F10 [20]): 6.81%
- Activity (B16-F10 [21]): 43.6%
- Activity [22]: Non-Toxic
- Activity [23]: Non-Toxic
- Activity (Mus musculus [24]): Non-Toxic
- Activity (Mus musculus [25]): Non-Toxic
- Ratio IC50 [26]: 6
